Data: patent publication US7074801B1, “Nitrogen-containing condensed cyclic compound having a pyrazolyl group as a substituent group and pharmaceutical composition thereof” (Eisai Co., Ltd., priority 2001, dated 2006)
Where a name gives a salt, the structure may show the parent alone.

System: STAT6
Test: Inhibitory test on STAT6 activation: IL-4-induced alkali phosphatase STAT6 reporter in 293 cells stably expressing the STAT6 gene and STAT6 reporter gene
Assay type: cell-based
Conditions: HEK293; Table 1; 1 ng/ml human recombinant IL-4, 16 hours, 293 cells with STAT6 reporter; read-out: Inhibitory activity IC50 (concentration at which the alkali phosphatase activity induced by IL-4 was inhibited by 50%)
Method: The inhibitory action of the present compound on activation of STAT6 was evaluated according to the following experiments.
1) Construction of a STAT6 Reporter Gene
An oligonucleotide of SEQ ID NO:1 in which three STAT6-binding regions on a human immunoglobulin germline E gene promoter had been linked was mixed with its complementary chain, thermally denatured and annealed, and 5′- and 3′-ends thereof were cleaved with restriction enzymes Kpn I (Code No. 1068A, Takara Shuzo) and Xba I (Code No. 1093A, Takara Shuzo) respectively, and the resulting fragment was cloned into a Kpn I/Xba I site of pUG-BGH-PLAP vector (described in Molecular Pharmacology, 49:860–873, 1996). To induce a basic transcriptional factor, a TK promoter region of herpes virus was cloned into an Xba I/Hind III (Code No. 1060A, Takara Shuzo) site of the pUG-BGH-PLAP vector. To obtain a stably expressing cell strain, a neomycin resistance gene (PGK-neo expression cassette) was integrated with an Sal I (Code No. 1080A, Takara Shuzo) of this vector. Cloning of the TK promoter and PGK-neo expression cassette was carried out according to Molecular Pharmacology, 49:860–873, 1996.
The underlined sites are a Kpn I recognition site and Xba I recognition site respectively. 2) Construction of an STAT6 Expression Vector
An oligonucleotide of SEQ ID NO:2 containing an initiation codon of STAT6 gene and an oligonucleotide of SEQ ID NO:3 containing a stop codon were used, and total RNA was prepared from human peripheral blood cells by using RNeasy Mini kit (Code No. 74104, OIAGEN). Then, cDNA was prepared by reverse transcription reaction using Takara RNA LA PCR kit (Code No. RR012A, Takara Shuzo) and then subjected to PCR reaction with primers of SEQ ID NOS:2 and 3, to amplify the STAT6 gene. • (SEQ ID NO:2) 5′-[…]-3′ The underlined site is an EcoR I recognition site. • (SEQ ID NO:3) 5′-[…]-3′ The underlined site is an Xho I recognition site.
The PCR product was digested with EcoR I (Code No. 1040A, Takara Shuzo) and Xho I (1094A, Takara Shuzo), and the digested fragment was isolated on an agarose gel. The isolated fragment was integrated into a vector fragment obtained by digesting pcDNA3.1 (+) (Code No. U790-20, Invitrogen) vector with EcoRI/Xho I.
3) Introduction of the Gene and Preparation of a Stably Expressing Cell Strain
Human fetal kidney-derived 293 cells (American Type Culture Collection), 3.0×10^5 cells, were spread on a Falcon tissue culture 6-well plate (Code No. 35-3046, Becton Dickinson) and cultured overnight. 1.5 μg of the prepared STAT6 reporter gene, 1.5 μg of the STAT6 gene and 20 μl of lipofectamine (Code No. 18324-012, GIBCO BRL) were mixed in 0.3 ml OPTI-MEM medium (Code No. 31985-070) and left at room temperature for 20 minutes. Thereafter, 1.2 ml OPTI-MEM medium was further added to the cells washed with OPTI-MEM medium not containing fetal bovine serum, and the cells were cultured for 2 hours. 1.5 ml medium containing fetal bovine serum was added thereto, and the cells were cultured for additional 19 hours. The medium was exchanged with a fresh one, and Geneticin (Code No. G-5013, SIGMA) was added at a concentration of 1 mg/ml, and the cells were cultured, and chemical-resistant cells were selected. The resulting chemical-resistant cells were floated in a medium containing 1 mg/ml Geneticin, then spread at a density of 0.5 cell/well on a 96-well microplate (Code No. 35-3072, Becton Dickinson) and cloned to give a clone expressing alkali phosphatase in response to IL-4.
4) Inhibitory Test on STAT6 Activation
The cells stably expressing the STAT6 gene and STAT6 reporter gene and expressing alkali phosphatase in response to IL-4 were spread at a density of 5000 cells/180 μl/well on a 96-well microplate (Code No. 35-3072, Becton Dickinson) and cultured overnight. […]

SMILES	IC50
Fc1ccc(-c2n[nH]cc2-c2ccc3ncc(-c4ccc(Cl)s4)n3c2)cc1 [Example 70, 3-(5-Chloro-2-thienyl)-6-[3-(4-fluorophenyl)-1H-4-pyrazolyl]imidazo[1,2-a]pyridine dihydrochloride]	10 to 100 nM
N#Cc1ccc(-c2cnc3ccc(-c4c[nH]nc4-c4ccc(F)cc4)cn23)s1 [Example 71, 5-{6-[3-(4-Fluorophenyl)-1H-4-pyrazolyl]imidazo[1,2-a]-pyridin-3-yl}-2-thiophene carboxynitrile dihydrochloride]	10 to 100 nM
N#Cc1ccc(-c2cnc3ccc(-c4c[nH]nc4-c4ccc(F)cc4)cn23)cc1 [Example 77, 4-{6-[3-(4-Fluorophenyl)-1H-4-pyrazolyl]imidazo[1,2-a]-pyridin-3-yl}benzonitrile dihydrochloride]	< 10 nM
NC(=O)c1ccc(-c2cnc3ccc(-c4c[nH]nc4-c4ccc(F)cc4)cn23)cc1 [Example 78, 4-{6-[3-(4-Fluorophenyl)-1H-4-pyrazolyl]imidazo[1,2-a]-pyridin-3-yl}benzamide dihydrochloride]	< 10 nM
CC(=O)NCCCOc1ccc(-c2cnc3ccc(-c4c[nH]nc4-c4ccc(F)cc4)cn23)cc1 [Example 87, N-[3-(4-{6-[3-(4-Fluorophenyl)-1H-4-pyrazolyl]imidazo-[1,2-a]pyridin-3-yl}phenoxy)propyl]acetamide]	< 10 nM
NC(=O)[C@@H]1CCCN1Cc1ccc(-c2cnc3ccc(-c4c[nH]nc4-c4ccc(F)cc4)cn23)s1 [Example 92, (2S)-1-[(5-{6-[3-(4-Fluorophenyl)-1H-4-pyrazolyl]-imidazo-[1,2-a]pyridin-3-yl}-2-thienyl)methyl]tetrahydro-1H-2-pyrrole carboxyamide trihydrochloride]	< 10 nM
CS(=O)(=O)c1ccc(-c2n[nH]cc2-c2ccc3ncc(-c4ccc(F)cc4)n3c2)cc1 [Example 101, 3-(4-Fluorophenyl)-6-{3-[4-(methylsulfonyl)phenyl]-1H-4-pyrazolyl}imidazo[1,2-a]pyridine dihydrochloride]	10 to 100 nM
CS(=O)(=O)c1ccc(-c2n[nH]cc2-c2ccc3ncc(-c4ccc(C#N)cc4)n3c2)cc1 [Example 102, 4–6-(3-[4-(Methylsulfonyl)phenyl]-1H-4-pyrazolyl}imidazo-[1,2-a]pyridin-3-yl)benzonitrile dihydrochloride]	10 to 100 nM
N#Cc1ccc(-c2n[nH]cc2-c2ccc3ncc(-c4ccc(C(N)=O)cc4)n3c2)cc1 [Example 108, 4-{6-[3-(4-Cyanophenyl)-1H-4-pyrazolyl]imidazo[1,2-a]-pyridin-3-yl}benzamide dihydrochloride]	< 10 nM
N#Cc1ccc(-c2n[nH]cc2-c2ccc3ncc(-c4ccc(CN5CCC[C@H]5C(N)=O)s4)n3c2)cc1 [Example 109, (2S)-1-{[(5-{6-[3-(4-Cyanophenyl)-1H-4-pyrazolyl]imidazo-[1,2-a]pyridin-3-yl}-2-thienyl)methyl]tetrahydro-1H-2-pyrrolecarboxyamidetrihydrochloride]	< 10 nM
O=C(c1ccc(-c2n[nH]cc2-c2ccc3ncc(-c4ccccn4)n3c2)cc1)N1CCOCC1 [Example 115, Morpholino(4-{4-[3-(2-pyridyl)imidazo[1,2-a]pyridin-6-yl]-1H-3-pyrazolyl}phenyl)methanone]	< 10 nM
Cc1n[nH]cc1-c1ccc2ncc(-c3ccc(CN4CCC[C@H]4C(N)=O)s3)n2c1 [Example 120, (2S)-1-({5-[6-(3-Methyl-1H-4-pyrazolyl)imidazo[1,2-a]-pyridin-3-yl]-2-thienyl}methyl)tetrahydro-1H-2-pyrrole carboxyamide trihydrochloride]	< 10 nM
N#Cc1ccc(-c2n[nH]cc2-c2ccc3ncn(-c4ccc(C#N)cn4)c3c2)cc1 [Example 148, 6-{6-[3-(4-Cyanophenyl)-1H-4-pyrazolyl]-1H-benzo[d]-imidazol-1-yl}nicotinonitrile trihydrochloride]	< 10 nM
CN1CCN(c2ccnc3ccc(-c4c[nH]nc4-c4ccc(F)cc4)cc23)CC1 [Example 203, 6-[3-(4-Fluorophenyl)-1H-4-pyrazolyl]-4-(4-methylpiperazin-1-yl)quinoline dihydrochloride]	10 to 100 nM
Cc1n[nH]cc1-c1ccc2nccc(N3CCN(C(=O)Nc4ccccc4)CC3)c2c1 [Example 212, N-Phenyl-4-[6-(3-methyl-1H-4-pyrazolyl)-4-quinolyl]-1-piperazine carboxamide dihydrochloride]	< 10 nM
O=C(N1CCCC1)N1CCN(c2ccnc3ccc(-c4c[nH]nc4C(F)(F)F)cc23)CC1 [Example 224, Tetrahydro-1H-1-pyrrolyl{4-[6-(3-trifluoromethyl-1H-pyrazolyl)-4-quinolyl]piperazin-1-yl}methanone]	< 10 nM
Cc1n[nH]cc1-c1ccc2nccc(N3CCN(C(=O)N(C)CCN(C)C)CC3)c2c1 [Example 227, N-[2-(Dimethylamino)ethyl]-N-methyl-4-[6-(3-methyl-1H-4-pyrazolyl)-4-quinolyl]-1-piperazine carboxamide dihydrochloride]	10 to 100 nM
COC1CCN(c2ccnc3ccc(-c4c[nH]nc4C)cc23)CC1 [Example 230, 4-(4-Methoxypiperidino)-6-(3-methyl-1H-4-pyrazolyl)quinoline dihydrochloride]	< 10 nM
Cc1n[nH]cc1-c1ccc2nccc(N3CCC(Oc4ccc(S(C)(=O)=O)cc4)CC3)c2c1 [Example 239, 6-(3-Methyl-1H-4-pyrazolyl)-4-{4-[4-(methylsulfonyl)-phenoxy]piperidino}quinoline dihydrochloride]	< 10 nM
COc1ccc(-c2ncnc3ccc(-c4c[nH]nc4-c4ccc(F)cc4)cc23)cc1 [Example 254, 6-[3-(4-Fluorophenyl)-1H-4-pyrazolyl]-4-[4-(methoxyphenyl)-quinazolinedihydrochloride]	10 to 100 nM
COc1ccc(-c2n[nH]cc2-c2ccc3ncnc(-c4ccc(S(C)(=O)=O)s4)c3c2)cc1OC [Example 261, 6-[3-(3,4-Dimethoxyphenyl)-1H-4-pyrazolyl]-4-[5-(methylsulfonyl)-2-thienyl]quinazoline dihydrochloride]	100 to 1000 nM
FC(F)(F)c1cccc(N2CCN(c3ncnc4ccc(-c5cn[nH]c5)cc34)CC2)c1 [Example 265, 6-(1H-4-Pyrazolyl)-4-{4-[3-(trifluoromethyl)phenyl]-piperazin-1-yl}quinazoline trihydrochloride]	10 to 100 nM
Clc1ccccc1N1CCN(c2ncnc3ccc(-c4cn[nH]c4)cc23)CC1 [Example 287, 4-[4-(2-Chlorophenyl)piperazin-1-yl]-6-(1H-4-pyrazolyl)-quinazoline]	10 to 100 nM
CN(C(=O)N1CCOCC1)c1ccc(-c2n[nH]cc2-c2ccc3ncc(-c4ccccn4)n3c2)cc1 [Example 534, Morpholine-4-carboxylic acid methyl(4-[4-(3-pyridin-2-ylimidazo[1,2-a]pyridin-6-yl)-1H-pyrazol-3-yl]phenyl} amide]	< 10 nM
c1ccc(-c2cnc3ccc(-c4c[nH]nc4-c4ccc(N5CCOCC5)cc4)cn23)nc1 [Example 539, 6-[3-(4-Morpholine-4-ylphenyl)-1H-pyrazol-4-yl]-3-(pyridin-2-yl)imidazo[1,2-a]pyridine]	< 10 nM
CS(=O)(=O)c1cnc(-c2cnc3ccc(-c4c[nH]nc4-c4c(F)cccc4F)cn23)s1 [Example 549, 6-[3-(2,6-Difluorophenyl)-1H-pyrazol-4-yl]-3-(5-methylsulfonylthiazol-2-yl)imidazo[1,2-a]pyridine]	< 10 nM
